# Test results taken from patent US5597919A, “Pyrimidinyl or Pyridinyl alkenyl amine compounds” (priority 1995, dated 1997).
# Key:
# [1] = test system: dopamine release from synaptosomes of the striatal area of rat brain; type: biochemical, rat (Sprague-Dawley); conditions: for Dopamine Release Emax (% nicotine): rat, striatal synaptosomes
# [2] = test system: ganglionic-type neuronal nicotinic receptors (rat pheochromocytoma clonal line PC 12); assay: Interaction with ganglia: 86Rb+ efflux in PC12 cells; type: cell-based
SMILES,EC50 [1] [µM],Dopamine Release Emax (% nicotine) [1] [% nicotine],Ganglion Effect (% nicotine) [2] [% nicotine]
"CNCC/C=C/c1ccc(C)nc1 [Sample No. 6, (E)-N-methyl-4-[3-(6-methylpyrindin)yl]-3-butene-1-amine]",0.219,60,4
"CNCCCCc1cccnc1 [Sample No. 7, N-methyl-(3-1-pyridinyl)-butane-1-amine]",,72,31
"COc1cncc(/C=C/CCN)c1 [Sample No. 3, (E)-4-[3-(5-methoxypyridin)yl]-3-butene-1-amine monofumarate]",4,95,0
"NCC/C=C/c1cncnc1.O=C(O)/C=C/C(=O)O [Sample No. 1, (E)-4-(5-pyrimidinyl)-3-butene-1-amine monofumarate]",4.36,113,
"CNCC/C=C/c1cccnc1 [Sample No. 8, (E)-metanicotine]",1.47,80,
"CNCCC#Cc1cccnc1 [Sample No. 4, N-Methyl-4-(3-pyridinyl)-3-butyne-1-amine]",8.35,87,59
"CNCC/C=C\c1cccnc1 [Sample No. 5, (Z)-metanicotine]",11.3,88,
"CN1CCC[C@H]1c1cccnc1 [Sample No. C-1, (S)-(-)-nicotine, reference compound]",0.115,,
"CNCC/C=C/c1cncnc1 [Sample No. 2, (E)-N-methyl-4-(5-pyrimidinyl)-3-butene-1-amine]",5.8,77,1
